Experimental data: patent US7560458B2, “Triazolopyrimidine derivatives as glycogen synthase kinase 3 inhibitors” (Janssen Pharmaceutica, N.V., priority 2003, dated 2009)

Tests used:
GSK3β = GSK3β (Homo sapiens, UniProt P49841); experiment: GSK3beta assay (SPA, biotinylated phosphorylated CREB peptide, ATP-P33); assay type: biochemical; conditions: −log IC50 (M); given as ranges (>8; 7-8; <7); read-out: pIC50 (GSK3beta) (converted)
Procedure: (§1) GSK3beta assays were performed at room temperature in a 100 μl reaction volume of 25 mM Tris (ph 7.4) containing 10 mM MgCl2.6H2O 1 mM DTT, 0.1 mg/ml BSA, 5% glyceol and containing 5.7 ng/μl GSK3β, 5 μM biotinylated phosphorylated CREB peptide, 1 μM APT, 0.85 μCi/ml ATP-P^33 and a suitable amount of a test compound of formula (I). After one hour, the reaction was terminated by adding 70 μl of Stop mix (0.1 mM APT, 5 mg/ml streptavidin coated PVT SPA bead pH 11.0). The beads to which the phosphorylated CREB peptide is attached were allowed to settle overnight and the radioactivity of the beads was counted in a microtiterplate scintillation counter and compared with the results obtained in a control experiment (without the presence of a test compound) in order to determine the percentage of GSK3β inhibition. The IC50 value, i.e. the concentration (M) of the test compound at which 50% of GSK3β is inhibited, was calculated from the dose response curve obtained by performing the above-described GSKK3β assay in the presence of different amounts of the test compound.

GSK3alpha = GSK3alpha (Homo sapiens, UniProt P49840); experiment: GSK3alpha assay (same as the GSK3beta assay, GSK3alpha 0.25 ng/μl); assay type: biochemical; conditions: −log IC50 (M); given as ranges (>8; 7-8; <7); read-out: pIC50 (GSK3alpha) (converted)
Procedure: as §1
The GSK3alpha assay was performed in the same way as described above for the GSK3beta assay except for the concentration of GSK3alpha which is 0.25 ng/μl.

Sequence of GSK3β (P49841 whole entry, species assumed): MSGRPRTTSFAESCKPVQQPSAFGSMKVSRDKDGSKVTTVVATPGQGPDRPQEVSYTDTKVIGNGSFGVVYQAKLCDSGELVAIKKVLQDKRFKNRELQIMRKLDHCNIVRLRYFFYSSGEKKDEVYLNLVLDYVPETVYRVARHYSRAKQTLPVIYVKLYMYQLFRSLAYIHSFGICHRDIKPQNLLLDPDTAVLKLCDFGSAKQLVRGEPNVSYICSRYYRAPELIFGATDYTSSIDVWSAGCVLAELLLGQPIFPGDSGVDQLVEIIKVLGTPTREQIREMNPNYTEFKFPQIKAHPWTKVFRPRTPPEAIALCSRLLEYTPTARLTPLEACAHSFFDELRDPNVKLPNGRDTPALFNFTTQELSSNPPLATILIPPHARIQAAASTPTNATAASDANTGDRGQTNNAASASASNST
Sequence of GSK3alpha (P49840 whole entry, species assumed): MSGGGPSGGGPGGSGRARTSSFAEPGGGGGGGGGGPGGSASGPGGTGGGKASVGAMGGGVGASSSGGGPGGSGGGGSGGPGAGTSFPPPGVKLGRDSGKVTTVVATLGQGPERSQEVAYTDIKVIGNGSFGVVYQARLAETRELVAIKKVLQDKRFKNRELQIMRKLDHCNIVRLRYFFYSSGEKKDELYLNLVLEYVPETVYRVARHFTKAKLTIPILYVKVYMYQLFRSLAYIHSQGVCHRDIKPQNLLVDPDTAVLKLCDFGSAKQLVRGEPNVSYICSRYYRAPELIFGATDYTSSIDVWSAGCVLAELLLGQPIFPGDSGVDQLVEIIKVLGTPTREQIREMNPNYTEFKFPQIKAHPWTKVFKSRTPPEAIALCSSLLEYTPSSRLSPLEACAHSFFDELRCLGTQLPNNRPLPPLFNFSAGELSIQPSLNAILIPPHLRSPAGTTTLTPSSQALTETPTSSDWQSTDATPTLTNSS

Compound	IC50 (GSK3β)	IC50 (GSK3alpha)
CC(=O)Nc1cccc(Nc2ncc3nnn(-c4cccc(F)c4)c3n2)c1 [Compound 11]	< 1e-08 M	< 1e-08 M
NC(=O)CNC(=O)c1cccc(Nc2ncc3nnn(-c4cccc(CC(=O)O)c4)c3n2)c1 [Compound 176]	1e-08 to 1e-07 M	1e-08 to 1e-07 M
COCc1cccc(Nc2ncc3nnn(-c4cccc(F)c4)c3n2)c1 [Compound 56]	< 1e-08 M	< 1e-08 M
CNC(=O)c1ccc(Nc2ncc3nnn(-c4cccc(F)c4)c3n2)cc1 [Compound 308]	< 1e-08 M	< 1e-08 M
O=C(NCCO)c1cccc(Nc2ncc3nnn(-c4cccc(CNC(=O)C5CC5)c4)c3n2)c1 [Compound 200]	1e-08 to 1e-07 M	< 1e-08 M
OCCc1ccc(-n2nnc3cnc(Nc4ccc(F)cc4)nc32)cc1 [Compound 291]	1e-08 to 1e-07 M	< 1e-08 M
OCCc1cccc(-n2nnc3cnc(Nc4ccc(F)cc4)nc32)c1 [Compound 261]	< 1e-08 M	< 1e-08 M
CNC(=O)c1ccc(Nc2ncc3nnn(-c4cccc(CC#N)c4)c3n2)cc1 [Compound 331]	1e-08 to 1e-07 M	1e-08 to 1e-07 M
Cc1ccc(Nc2ncc3nnn(-c4cccc(F)c4)c3n2)cc1O [Compound 21]	< 1e-08 M	< 1e-08 M
NS(=O)(=O)c1ccc(Nc2ncc3nnn(-c4ccccc4)c3n2)cc1 [Compound 37]	< 1e-08 M	< 1e-08 M
CC(O)c1cccc(Nc2ncc3nnn(-c4cccc(CC#N)c4)c3n2)c1 (stereo not drawn) [Compound 278]	< 1e-08 M	< 1e-08 M
CSc1cccc(Nc2ncc3nnn(-c4cccc(F)c4)c3n2)c1 [Compound 122]	< 1e-08 M	< 1e-08 M
CN(C)CCOc1ccc(Nc2ncc3nnn(-c4cccc(F)c4)c3n2)cc1 [Compound 296]	1e-08 to 1e-07 M	1e-08 to 1e-07 M
COCCNC(=O)c1cccc(Nc2ncc3nnn(-c4cccc(F)c4)c3n2)c1 [Compound 90]	< 1e-08 M	< 1e-08 M
COc1ccc(Nc2ncc3nnn(-c4cccc(CNC(C)=O)c4)c3n2)cn1 [Compound 127]	< 1e-08 M	< 1e-08 M
NC(=O)CNC(=O)c1cccc(Nc2ncc3nnn(-c4cccc(F)c4)c3n2)c1 [Compound 89]	< 1e-08 M	< 1e-08 M
O=C(O)c1cccc(Nc2ncc3nnn(-c4cccc(F)c4)c3n2)c1 [Compound 29]	1e-08 to 1e-07 M	< 1e-08 M
COC(=O)c1cc(Nc2ncc3nnn(-c4cccc(F)c4)c3n2)ccc1NC(C)=O [Compound 104]	< 1e-08 M	< 1e-08 M
COCc1cccc(-n2nnc3cnc(Nc4ccc(CCO)cc4)nc32)c1 [Compound 139]	< 1e-08 M	< 1e-08 M
COc1cccc(-n2nnc3cnc(Nc4cccc(S(N)(=O)=O)c4)nc32)c1 [Compound 35]	< 1e-08 M	< 1e-08 M
NS(=O)(=O)c1ccc(Nc2ncc3nnn(-c4cccc(CNC(=O)C56CC7CC(CC(C7)C5)C6)c4)c3n2)cc1 [Compound 243]	1e-08 to 1e-07 M	1e-08 to 1e-07 M

Compound	IC50 (GSK3β)	IC50 (GSK3alpha)
COc1ccc(Nc2ncc3nnn(-c4ccccc4)c3n2)cn1 [Compound 47]	< 1e-08 M	< 1e-08 M
O=C(O)c1ccc(Nc2ncc3nnn(-c4cccc(C(=O)NCCO)c4)c3n2)cc1 [Compound 247]	1e-08 to 1e-07 M	< 1e-08 M
O=C(O)c1ccc(Nc2ncc3nnn(-c4cccc(CNC(=O)C5CC5)c4)c3n2)cc1Cl [Compound 212]	< 1e-08 M	< 1e-08 M
COCC(=O)NCc1cccc(-n2nnc3cnc(Nc4ccc(C(=O)O)cc4)nc32)c1 [Compound 155]	1e-08 to 1e-07 M	< 1e-08 M
CC(=O)Nc1ccc(Nc2ncc3nnn(-c4ccccc4)c3n2)cn1 [Compound 83]	1e-08 to 1e-07 M	1e-08 to 1e-07 M
CCOC(=O)NCc1cccc(-n2nnc3cnc(Nc4cccc([S+](C)[O-])c4)nc32)c1 (stereo not drawn) [Compound 223]	< 1e-08 M	< 1e-08 M
O=C(O)Cc1ccc(Nc2ncc3nnn(-c4cccc(CNC(=O)C56CC7CC(CC(C7)C5)C6)c4)c3n2)cc1 [Compound 240]	1e-08 to 1e-07 M	1e-08 to 1e-07 M
COCCOCc1cccc(-n2nnc3cnc(Nc4ccc(C(N)=O)cc4)nc32)c1 [Compound 286]	< 1e-08 M	< 1e-08 M
NC(=O)CNS(=O)(=O)c1cccc(Nc2ncc3nnn(-c4cccc(F)c4)c3n2)c1 [Compound 98]	< 1e-08 M	< 1e-08 M
O=S(=O)(CCO)c1cccc(Nc2ncc3nnn(-c4cccc(F)c4)c3n2)c1 [Compound 77]	< 1e-08 M	< 1e-08 M
COCCOCc1cccc(-n2nnc3cnc(Nc4ccc(CCN)cc4)nc32)c1 [Compound 318]	1e-08 to 1e-07 M	1e-08 to 1e-07 M
COCc1cccc(-n2nnc3cnc(Nc4ccc(CN)cc4)nc32)c1 [Compound 315]	< 1e-08 M	< 1e-08 M
N#CCc1cccc(-n2nnc3cnc(Nc4ccc(CCO)cc4)nc32)c1 [Compound 268]	< 1e-08 M	< 1e-08 M
CC(C)CC(=O)NCc1cccc(-n2nnc3cnc(Nc4cccc(NS(C)(=O)=O)c4)nc32)c1 [Compound 189]	< 1e-08 M	< 1e-08 M
CC(C)CC(=O)NCc1cccc(-n2nnc3cnc(Nc4ccc(C(N)=O)cc4)nc32)c1 [Compound 191]	< 1e-08 M	< 1e-08 M
COc1ccc(Nc2ncc3nnn(-c4cccc(CCO)c4)c3n2)cn1 [Compound 173]	< 1e-08 M	< 1e-08 M
N#CCc1cccc(-n2nnc3cnc(Nc4ccc(Cl)cc4)nc32)c1 [Compound 337]	< 1e-08 M	< 1e-08 M
COCc1cccc(-n2nnc3cnc(Nc4ccc(C(=O)O)c(OC)c4)nc32)c1 [Compound 304]	< 1e-08 M	< 1e-08 M
CC(C)CC(=O)NCc1cccc(-n2nnc3cnc(Nc4ccc(CC(=O)O)cc4)nc32)c1 [Compound 194]	1e-08 to 1e-07 M	< 1e-08 M
COc1ccc(Nc2ncc3nnn(-c4cccc(CC#N)c4)c3n2)cn1 [Compound 267]	< 1e-08 M	< 1e-08 M
COCCOCc1cccc(-n2nnc3cnc(Nc4ccc(CN)cc4)nc32)c1 [Compound 314]	1e-08 to 1e-07 M	1e-08 to 1e-07 M

Compound	IC50 (GSK3β)	IC50 (GSK3alpha)
O=C(O)Cc1ccc(Nc2ncc3nnn(-c4cccc(CNC(=O)C5CC5)c4)c3n2)cc1 [Compound 207]	< 1e-08 M	< 1e-08 M
CC(=O)NCCNS(=O)(=O)c1cccc(Nc2ncc3nnn(-c4cccc(F)c4)c3n2)c1 [Compound 102]	< 1e-08 M	< 1e-08 M
CCOc1cc(Nc2ncc3nnn(-c4cccc(CCO)c4)c3n2)ccc1C(=O)O [Compound 255]	< 1e-08 M	< 1e-08 M
Cc1cccc(Nc2ncc3nnn(-c4cccc(F)c4)c3n2)c1 [Compound 14]	1e-08 to 1e-07 M	< 1e-08 M
CN(C)C(=O)c1ccc(Nc2ncc3nnn(-c4cccc(CCO)c4)c3n2)cc1 [Compound 330]	< 1e-08 M	< 1e-08 M
O=S(=O)(NCCO)c1cccc(Nc2ncc3nnn(-c4cccc(F)c4)c3n2)c1 [Compound 88]	< 1e-08 M	< 1e-08 M
COC(=O)c1cc(Nc2ncc3nnn(-c4cccc(CC#N)c4)c3n2)ccc1NC(C)=O [Compound 269]	< 1e-08 M	< 1e-08 M
N#CCc1cccc(-n2nnc3cnc(Nc4ccc(CNCC(F)(F)F)cc4)nc32)c1 [Compound 311]	< 1e-08 M	< 1e-08 M
COCc1cccc(-n2nnc3cnc(Nc4cccc(S(=O)(=O)NCCO)c4)nc32)c1 [Compound 142]	< 1e-08 M	< 1e-08 M
CC(=O)NCc1cccc(-n2nnc3cnc(Nc4ccc(C(=O)O)cc4)nc32)c1 [Compound 126]	< 1e-08 M	< 1e-08 M
CC(C)(C)OC(=O)NCc1ccc(Nc2ncc3nnn(-c4cccc(F)c4)c3n2)cc1 [Compound 294]	< 1e-08 M	< 1e-08 M
COCc1cccc(-n2nnc3cnc(Nc4cccc(C(=O)O)c4)nc32)c1 [Compound 121]	1e-08 to 1e-07 M	1e-08 to 1e-07 M
COc1cccc(-n2nnc3cnc(Nc4cccc(C(C)=O)c4)nc32)c1 [Compound 51]	< 1e-08 M	< 1e-08 M
COCc1cccc(-n2nnc3cnc(Nc4cccc(S(N)(=O)=O)c4)nc32)c1 [Compound 85]	1e-08 to 1e-07 M	< 1e-08 M
N#Cc1ccc(Nc2ncc3nnn(-c4cccc(CCO)c4)c3n2)cc1 [Compound 285]	< 1e-08 M	< 1e-08 M
CC(=O)N(C)c1ccc(Nc2ncc3nnn(-c4cccc(F)c4)c3n2)cc1 [Compound 135]	< 1e-08 M	< 1e-08 M
O=C(O)CNC(=O)c1ccc(Nc2ncc3nnn(-c4cccc(CNC(=O)C56CC7CC(CC(C7)C5)C6)c4)c3n2)cc1 [Compound 238]	< 1e-08 M	< 1e-08 M
N#Cc1ccc(Nc2ncc3nnn(-c4cccc(C(=O)NCCO)c4)c3n2)cc1 [Compound 229]	< 1e-08 M	< 1e-08 M
OCCc1cccc(Nc2ncc3nnn(-c4cccc(CCO)c4)c3n2)c1 [Compound 172]	< 1e-08 M	< 1e-08 M
Fc1cccc(-n2nnc3cnc(Nc4ccc(OC(F)F)cc4)nc32)c1 [Compound 19]	1e-08 to 1e-07 M	< 1e-08 M
O=C(O)c1ccc(Nc2ncc3nnn(-c4cccc(CCO)c4)c3n2)cc1 [Compound 257]	< 1e-08 M	< 1e-08 M
